From PMC11514582, “Leveraging the Aggregated Protein Dye YAT2150 for Malaria Chemotherapy” (Pharmaceutics, 2024)

Key:
[1] = human hepatocytes; cited from earlier work
[2] = system: P. berghei oocysts in A. gambiae mosquitoes; assay: Membrane blood feeding assay (oocyst production in mosquitoes); format: in vivo, Plasmodium berghei; conditions: 10 µM in blood meal; 7 days
Experimental: The Anopheles gambiae mosquito G3 strain was reared under standard conditions at 28 °C and 80% humidity. One to two days before blood feeding, the mosquitoes were fed penicillin (20 U/mL) and streptomycin (20 μg/mL) in the sugar meal (10% sucrose). Mice were infected with the P. berghei mutant Bergreen, which constitutively expresses GFP [18]. Blood was obtained by heart puncture of one mouse, and aliquoted in two tubes that were immediately placed at 37 °C. YAT2150 at a final concentration of 10 µM diluted from a stock solution in dimethyl sulfoxide (DMSO) was added to one tube. The control tube contained the same concentration of DMSO (0.5%). After the feeding carried out in membrane feeders for 60 min, mosquitoes were kept at 19 °C and provided with sugar meal containing the antibiotics as above. Seven days after feeding, the mosquitoes were dissected in PBS, mounted in […]®, and GFP-positive oocysts were counted under an Axioskop 2 microscope (Zeiss, Oberkochen, Germany).

[3] = Cytotoxicity assay in A2780 (MTT); format: cell-based; conditions: human, A2780 cells, read-out: A2780 inhibition (CC50)
Experimental: (§1) THP-1 human acute monocytic leukemia cells and NCI-H460 human lung carcinoma cells were grown in RPMI supplemented with 10% FBS. Hep-G2 human hepatocellular carcinoma cells were cultured in Eagle’s minimum essential medium (EMEM) supplemented with 10% FBS. A2780 human ovarian carcinoma cells were grown in RPMI supplemented with 10% FBS and 2 mM L-glutamine. MCF-7 human breast adenocarcinoma cells were cultured in EMEM containing 2 mM L-glutamine and Earle’s balanced salt solution adjusted with 1.5 g/L sodium bicarbonate, 0.1 mM non-essential amino acids, and 1 mM sodium pyruvate and supplemented with 10% FBS. […] Except for Caco-2 and HUVEC, inhibition of cell growth was evaluated using a protocol based on monitoring the transformation into formazan of the tetrazolium salt of MTT (3-(4,5-dimethylthiazol-2-yl)-2,5-diphenyltretrazolium bromide) by metabolically active cells. […] After 96 further h of incubation in the same conditions, 10 µL of a 5 mg/mL MTT solution in PBS was added to each sample, and the incubation was resumed for another 4 h. […] The absorbance measurement range was framed between one sample containing 4000 cells in plain growth medium (to determine the stable cell concentration) and another sample containing an equal cell number in growth medium supplemented with growth factors (to measure the maximum cell growth at 96 h).

[4] = system: liver stages of P. berghei in Huh7; conditions: human hepatoma cell line Huh7; read-out: IC50 against liver stages of P. berghei; cited from earlier work
[5] = Cytotoxicity assay in MCF7 (MTT); format: cell-based; conditions: human, MCF-7 cells, read-out: MCF7 inhibition (CC50)
Experimental: as §1

[6] = Human plasma protein binding (Rapid Equilibrium Dialysis); format: in vitro ADME; conditions: pH 7.2, RED, 4 h at 37 °C
Experimental: The assay was carried out by Rapid Equilibrium Dialysis (RED). The compounds were dissolved at 5 μM in human plasma and added to the corresponding insert of the RED device (Thermo Fisher Scientific, Inc., Waltham, MA, USA), and dialysis was performed for 4 h at 37 °C in […], 25 mM tris-HCl, pH 7.2 (Tris BupH^TM, Thermo Fisher Scientific, Inc.). Then, 50-µL aliquots from each chamber were transferred to empty vials, to which 50 µL of dialysis buffer was added. As control, 50 µL of plasma was mixed with 50 µL of buffer. Three hundred µL of acetonitrile was added to all the samples, which were analyzed by ultra-performance liquid chromatography with tandem mass spectrometry as previously described.

[7] = system: P. berghei ookinete development; assay: Ex vivo gametocyte-to-ookinete transition inhibition (ookinete maturation) assay; format: cell-based, Plasmodium berghei; conditions: ex vivo, 24 h at 21 °C
Experimental: Eight days before ookinete production, 100 µL of a red blood cell (RBC) pellet containing the Plasmodium berghei circumsporozoite protein and thrombospondin-related adhesive protein (TRAP)-related protein (CTRP)-green fluorescent protein (GFP) strain (CTRP-GFP, which expresses GFP when reaching ookinete stage, kindly provided by Inga Siden-Kiamos) in cryopreservation solution (RBC pellet:RPMI:30% glycerol in water, 1:1:2) was administered intraperitoneally (i.p.) to a BALB/c mouse (Charles River Laboratories, Wilmington, MA, USA). […] The effect of drugs on gametocyte-to-ookinete conversion was assessed in three independent replicas by plating 120 µL of each culture treated with serial dilutions of the compounds in 96-well plates and incubated for 24 h at 21 °C with orbital shaking at 50 rpm (modified from). Finally, samples diluted 1:100 in PBS were analyzed in an LSRFortessa flow cytometer (BD Biosciences, Franklin Lakes, NJ, USA) set up with the 4 lasers, 20 parameters standard configuration. The GFP positive cell population was counted (λexcitation: 488 nm; λemission: 525/40 nm) using BD FACSDiva software 6.1.3 (BD Biosciences) for data collection and Flowing Software 2.5.1 (Turku Center for Biotechnology, Turku, Finland) for analysis.

CYP1A2 = molecular target: T1, CYP1A2 (Homo sapiens, UniProt P05177); conditions: cited from earlier work
T1 sequence (P05177 1-516): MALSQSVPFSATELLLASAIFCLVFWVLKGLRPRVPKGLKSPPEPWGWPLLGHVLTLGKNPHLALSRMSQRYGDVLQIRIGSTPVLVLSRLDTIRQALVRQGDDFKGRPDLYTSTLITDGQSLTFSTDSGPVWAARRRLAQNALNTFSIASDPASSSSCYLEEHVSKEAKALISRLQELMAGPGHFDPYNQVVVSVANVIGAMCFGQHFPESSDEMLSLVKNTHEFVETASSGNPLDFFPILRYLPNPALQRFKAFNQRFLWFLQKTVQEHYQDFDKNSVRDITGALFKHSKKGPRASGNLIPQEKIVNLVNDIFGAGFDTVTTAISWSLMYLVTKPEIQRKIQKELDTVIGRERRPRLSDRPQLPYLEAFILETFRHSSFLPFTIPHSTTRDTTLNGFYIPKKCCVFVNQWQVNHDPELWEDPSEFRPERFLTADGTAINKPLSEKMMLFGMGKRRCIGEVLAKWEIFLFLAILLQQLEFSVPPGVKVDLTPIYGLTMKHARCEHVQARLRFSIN

CCN(CC)c1ccc(/C=C/c2cc[n+](CCCCCCCCCC[n+]3ccc(/C=C/c4ccc(N(CC)CC)cc4)c(C)c3)cc2C)cc1 [YAT2150]
Hepatocyte stability (% remaining after 2 h) [1]: 70.4 ^7% | Hepatocyte stability T1/2 [1]: 277.3 ^7 min | oocyst number/midgut compared to the control [2]: significantly reduced | prevalence of infection compared to the control [2]: significantly reduced | CC50 at 96 h [3]: 590 ± 160 nM | IC50 [4]: 780 nM | CC50 at 96 h [5]: 930 ± 10 nM | fraction unbound at 4 h, 5 μM [6]: 0.003 | concentration that abolished ookinete production [7]: ca. 0.5 µM | CYP1A2 inhibition (% at 10 µM) (CYP1A2): around 50%
